# Test results from article PMC9306920 (Clinical Pharmacology in Drug Development, 2022).
# Assays:
# [1] = test system: healthy subjects; assay: Thorough QT study: cardiodynamic ECG assessment; type: in vivo, human
# [2] = Plasma pharmacokinetics in thorough QT study; type: in vivo, human; conditions: moxifloxacin 400 mg single oral dose
compound,measurement,setting,value
COc1c(N2C[C@@H]3CCCN[C@@H]3C2)c(F)cc2c(=O)c(C(=O)O)cn(C3CC3)c12 [Moxifloxacin],Subjects with QTcF of >450 milliseconds or ΔQTcF of >30 milliseconds,"[1]; any treatment, any time point",No subject
same,U-wave presence,[1]; during the study,No U‐wave observations
same,Largest LS mean ΔQRS,"[1]; moxifloxacin 400 mg, 0.5, 1, and […] after dosing",0.2 milliseconds
same,Largest LS mean ΔΔQTcF,"[1]; moxifloxacin 400 mg, 2 hours after dosing",12.9 milliseconds
same,Peak LS mean ΔQTcF,"[1]; moxifloxacin 400 mg, 3 hours after dosing",9.2 milliseconds
same,Largest LS mean ΔHR,"[1]; moxifloxacin 400 mg, 6 hours after dosing",8.7 bpm
same,"Frequencies of flat, notched, and biphasic T-wave morphologies",[1]; versus placebo,lower than or the same as for placebo
same,Time at which plasma concentration reached its maximal value,[2],2 h
same,Time plasma concentration remained detectable,[2],72 h
